The values that follow come from US20210346388A1, “CDC7-Inhibiting Purine Derivatives and their use for the Treatment of Neurological Conditions” (CONSEJO SUPERIOR DE INVESTIGACIONES CIENTIFICAS (CSIC), priority 2018, published 2021).

Data set [1] deals with recombinant human Cdc7/DBF4 (Homo sapiens, UniProt O00311). Briefly: LanthaScreen Eu Kinase Inhibition Assay (Cdc7 inhibition). Format: binding. As to conditions: recombinant human Cdc7/DBF4 0.5 nM, 60 min room temperature, 1% DMSO; read-out: Cdc7 CI50. An excerpt: The LanthaScreen Eu Kinase Inhibition Assay uses an Alexa Fluor™ marker which binds to a kinase and is detected by the addition of an Eu-labelled antibody. The binding of the marker and the antibody to the kinase results in a high degree of FRET, whereas the displacement of the marker by an inhibitor results in a loss of FRET. Unlike many other kinase activity assays, this is a simple mix and read assay, without stages of development. This assay method has been developed by “Life Technologies” and they identify competitive ATP kinase inhibitors, making them suitable for the detection of any compound which binds to the ATP site.
Chain of recombinant human Cdc7/DBF4 (O00311 whole entry): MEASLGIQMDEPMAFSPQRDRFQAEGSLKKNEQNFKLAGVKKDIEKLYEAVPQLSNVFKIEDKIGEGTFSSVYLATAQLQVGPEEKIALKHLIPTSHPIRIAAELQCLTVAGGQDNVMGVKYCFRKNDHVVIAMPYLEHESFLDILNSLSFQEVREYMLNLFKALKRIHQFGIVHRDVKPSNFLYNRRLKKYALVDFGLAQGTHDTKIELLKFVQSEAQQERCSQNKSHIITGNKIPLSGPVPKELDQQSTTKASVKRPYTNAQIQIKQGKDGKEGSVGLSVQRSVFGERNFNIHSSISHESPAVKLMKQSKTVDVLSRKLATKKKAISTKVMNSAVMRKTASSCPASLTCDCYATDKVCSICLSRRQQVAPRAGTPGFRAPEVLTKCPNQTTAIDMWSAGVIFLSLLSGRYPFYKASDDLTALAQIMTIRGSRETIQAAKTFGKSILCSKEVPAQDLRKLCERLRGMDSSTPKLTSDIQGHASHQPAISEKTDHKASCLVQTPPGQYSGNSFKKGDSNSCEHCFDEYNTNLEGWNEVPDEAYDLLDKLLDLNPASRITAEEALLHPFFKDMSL
Chain of recombinant human Cdc7/DBF4 (Q9UBU7 whole entry partner): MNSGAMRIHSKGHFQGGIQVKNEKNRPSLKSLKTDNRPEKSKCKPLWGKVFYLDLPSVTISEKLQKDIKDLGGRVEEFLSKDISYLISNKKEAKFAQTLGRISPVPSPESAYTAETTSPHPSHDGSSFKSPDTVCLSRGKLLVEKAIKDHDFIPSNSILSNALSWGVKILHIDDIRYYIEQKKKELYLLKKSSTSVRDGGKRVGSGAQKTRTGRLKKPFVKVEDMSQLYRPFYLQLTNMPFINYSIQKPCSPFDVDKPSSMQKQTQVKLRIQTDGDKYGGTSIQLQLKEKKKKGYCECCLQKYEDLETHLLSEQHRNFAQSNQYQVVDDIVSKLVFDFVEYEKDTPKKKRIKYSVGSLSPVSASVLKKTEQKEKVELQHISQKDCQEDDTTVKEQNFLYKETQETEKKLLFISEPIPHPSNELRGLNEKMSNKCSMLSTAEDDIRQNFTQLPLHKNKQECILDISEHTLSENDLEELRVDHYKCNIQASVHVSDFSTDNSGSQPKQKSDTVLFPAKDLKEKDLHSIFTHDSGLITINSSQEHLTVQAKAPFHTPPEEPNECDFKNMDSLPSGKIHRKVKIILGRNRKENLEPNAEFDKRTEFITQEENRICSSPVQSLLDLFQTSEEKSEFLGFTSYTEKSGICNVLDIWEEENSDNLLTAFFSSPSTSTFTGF
The compounds are evaluated in 1% DMSO (final) in the well. A mixture of recombinant human Cdc7/DBF4 (0.5 nM), Eu-anti-GST antibody (2 nM) and Alexa Fluor marker (1 nM) in a buffer of 50 mM HEPES pH 7.5, 0.01% BRIJ-35, 10 mM MgCl2, 1 mM EGTA was used. In white plates with […], with a low volume, and coded (Greiner cat. #784207), 160 nL (100×compound in 100% DMSO), 3.84 μl (buffer with Cdc7/DBF4), […] (antibody), 4.0 μl (marker) are added. It is stirred for 30 s and incubated at room temperature for 60 min. Next, the fluorescence is measured in the plate reader and the data is analysed (Table 1).
On the technique in general: In TR-FRET formats the signal depends on donor and acceptor labels being close together.

A short description of data set [2]: PAMPA-BBB permeability (porcine brain lipid artificial membrane). Format: in vitro ADME. Also on record: key to PAMPA prediction of the penetration into the central nervous system (CNS): permeable to the BBB (CNS+) if it has a permeability >4.48×10^−6 cm·s^−1; CNS+/−: located in the zone of uncertainty. To be noted: for Papp at 2.5 h: pig, PAMPA, porcine brain lipid, PBS pH 7.4/EtOH 70:30, 2 h 30 min at 25° C., mean ± SD, read-out: Pe (permeability, PAMPA-BBB); for PAMPA prediction of the penetration into the central nervous system (CNS): prediction from Pe, PAMPA-BBB. An excerpt:
An essential requirement that must be met by drugs for the treatment of neurodegenerative diseases is the ability to cross the blood-brain barrier (BBB) since, otherwise, they could not act on the target of interest. Therefore, for the compounds that are non-permeable or located in the zone of uncertainty, it could be necessary for them to be suitably conveyed in a pharmaceutical formulation by means of methods known by those skilled in the art, such as by means of encapsulation. This ability can be predicted in vitro by using a method known by the acronym PAMPA (Parallel Artificial Membrane Permeability Assay) described by Di et al. (Di, L.; Kerns, E. H.; Fan, K.; McConnell, O. J.; Carter, G. T. Eur. J. Med. Chem., 2003, 38 (3), 223-232) and that has subsequently been fine-tuned in our research group. Said method enables the effective permeability through artificial membranes to be predicted by means of a passive diffusion process.
First, it is necessary to validate the method, for which reason 10 commercial compounds, whose ability to penetrate the central nervous system (CNS) is known, are used and will be specified below, obtaining in this case good linear correlation between the experimental permeability values (Pe) and those described (FIG. 1). This correlation line obtained following the pattern described in the literature makes it possible to establish the limits for predicting whether a compound can cross the blood-brain barrier or not. Thus, a compound is considered to be permeable to the BBB (CNS+) if it has a permeability >4.48×10^−6 cm·s^−1.
For the procedure, between 3-5 mg of caffeine, desipramine, enoxacin, hydrocortisone, ofloxacin, piroxicam and testosterone, 12 mg of promazine and 25 mg of atenolol and verapamil were taken and dissolved in EtOH (1000 μl). 100 μl of these solutions were taken and EtOH (1400 μl) and phosphate buffer (PBS) pH=7.4 (3500 μl) were added in order to reach a final EtOH concentration of 30% v/v in solution. Lastly, the solutions were filtered.
Moreover, a solution of PBS/EtOH (70:30) was added to each well of the acceptor plate (180 μl). The donor plate was impregnated with a solution of porcine brain lipid (4 μl) dissolved in dodecane (20 mg·ml^−1). After 5 min, a solution of each compound was added on this plate (180 μl).
Of the compounds evaluated, between 1-2 mg were taken and dissolved in EtOH (1500 μl) and phosphate buffer (PBS) pH=7.4 (3500 μl), filtered and added to the donor plate. With these solutions, the wavelengths at which they absorb the compounds are determined and the initial absorbance levels at these wavelengths are measured by using a UV absorbance reader. Each sample was analysed at two to five wavelengths, in three wells and in two independent experiments.
Next, the donor plate was deposited on the acceptor plate forming a sort of “sandwich” and they were left to incubate for 2 h and 30 min at 25° C. Thus, the compounds will pass from the donor plate to the acceptor plate through the porcine brain lipid by means of passive diffusion. After that time, the donor plate is carefully removed and the final concentration and absorbance of both the commercial and the synthesised compounds are determined. The results obtained are expressed as the mean of the measurements [standard deviation (SD)] of the different experiments performed and are recorded in Table 2.

The subject of data set [3] is SH-SY5Y human neuroblastoma cell line. Briefly: cells. In kind it is cell-based. The procedure: The data represents the mean of four different experiments ±SEM (*p<0.05).
The SH-SY5Y human neuroblastoma cell line was grown at 37° C. with 5% CO2 in DMEN (Dulbecco's Modified Eagle Medium) enriched with L-glutamine (2 mM), 1% non-essential amino acids, 1% Penicillin/Streptomycin and 10% foetal bovine serum. In the state of semi-confluence, the cells were treated with the Cdc7 inhibitor (compound 3) at different concentrations for 1.30 hours post-addition of the causative agent of the TDP-43 phosphorylation; ethacrynic acid (20 μM) (Sigma). At 24 hours, the cellular viability was evaluated with MTT ([3-(4,5-dimethylthiazol-2-yl)-2,5-diphenyltetrazolium bromide) following a described procedure (Denizot F, Lang R. J Immunol Methods. 1987; 89:271-7).

With `O=C(CSc1ncnc2[nH]cnc12)c1ccc(I)cc1` [compound 5, 1-(4-iodophenyl)-2-((9H-purin-6-yl)thio)-ethan-1-one], the IC50 in data set [1] was found to be 380 nM. Also, in data set [2], the Papp at 2.5 h is 10.5 ± 1.2 ×10⁻⁶ cm/s and the “PAMPA prediction of the penetration into the central nervous system (CNS)” value (“PAMPA prediction” below) was “CNS+ (permeable to the BBB (CNS+) if it has a permeability >4.48×10^−6 cm·s^−1)”.
Take `COc1cccc(C(=O)CSc2ncnc3[nH]cnc23)c1` [compound 4, 1-(3-methoxyphenyl)-2-((9H-purin-6-yl)thio)-ethan-1-one]: in data set [1], the IC50 was found to be 1710 nM. For the same compound, in data set [2], the Papp at 2.5 h was 2.4 ± 1 ×10⁻⁶ cm/s and the “PAMPA prediction” value is given as “CNS+/−”.
The corresponding values for `COc1ccc(C(=O)CSc2ncnc3[nH]cnc23)cc1` [compound 2, 1-(4-methoxyphenyl)-2-((9H-purin-6-yl)thio)-ethan-1-one] are 1080 nM, 2.5 ± 0.1 ×10⁻⁶ cm/s and “CNS+/−”.
For `Clc1cccc(CCSc2ncnc3[nH]cnc23)c1` [compound 7, 6-((3-chlorophenethyl)thio)-9H-purine], in data set [1], the IC50 came out at 305 nM. In data set [2], the Papp at 2.5 h was 10.6 ± 0.5 ×10⁻⁶ cm/s and the “PAMPA prediction” value is given as “CNS+ (permeable to the BBB (CNS+) if it has a permeability >4.48×10^−6 cm·s^−1)”.
With `O=C(CSc1ncnc2[nH]cnc12)c1ccc2ccccc2c1` [compound 3, 1-(naphthalen-2-yl)-2-((9H-purin-6-yl)thio)-ethan-1-one], in data set [3] (SH-SY5Y cells, ethacrynic acid 20 μM, inhibitor at 10 μM, viability at 24 hours), the “Reversal of cell death caused by ethacrynic acid (neuroprotective effect, MTT viability)” value is “this death is reversed”. Besides, the IC50 in data set [1] turned out to be 698 nM. For the same compound, in data set [2], the Papp at 2.5 h was 9.6 ± 0.8 ×10⁻⁶ cm/s and the “PAMPA prediction” value was “CNS+ (permeable to the BBB (CNS+) if it has a permeability >4.48×10^−6 cm·s^−1)”.
As to `Fc1ccc(CCSc2ncnc3[nH]cnc23)cc1` [compound 9, 6-((4-fluorophenethyl)thio)-9H-purine], the IC50 in data set [1] turned out to be 397 nM. Besides, in data set [2], the Papp at 2.5 h was 10.2 ± 0.5 ×10⁻⁶ cm/s and the “PAMPA prediction” value is on record as “CNS+ (permeable to the BBB (CNS+) if it has a permeability >4.48×10^−6 cm·s^−1)”.
A word on the mortality: it is the percentage killed. Take `C=C(CC)C(=O)c1ccc(OCC(=O)O)c(Cl)c1Cl` [ethacrynic acid, reference compound]: in data set [3] (Homo sapiens, SH-SY5Y, 24 h, read-out: Cell mortality due to excess TDP-43 phosphorylation), the mortality at 20 µM came out at 40%.
For `Clc1ccccc1CCSc1ncnc2[nH]cnc12` [compound 8, 6-((2-chlorophenethyl)thio)-9H-purine], in data set [2], the Papp at 2.5 h is 11.6 ± 0.5 ×10⁻⁶ cm/s and the “PAMPA prediction” value is reported as “CNS+ (permeable to the BBB (CNS+) if it has a permeability >4.48×10^−6 cm·s^−1)”.
With `Clc1ccc(CCSc2ncnc3[nH]cnc23)cc1` [compound 6, 6-((4-chlorophenethyl)thio)-9H-purine], the IC50 in data set [1] came out at 142 nM. In addition, in data set [2], the Papp at 2.5 h was 25.1 ± 1.3 ×10⁻⁶ cm/s and the “PAMPA prediction” value is recorded as “CNS+ (permeable to the BBB (CNS+) if it has a permeability >4.48×10^−6 cm·s^−1)”.
The corresponding values for `c1ccc(CSc2ncnc3[nH]ccc23)cc1` [compound 10, 4-(benzylthio)-7H-pyrrolo[2,3-d]pyrimidine] are 234 nM, 4.5 ± 1.2 ×10⁻⁶ cm/s and “CNS+ (permeable to the BBB (CNS+) if it has a permeability >4.48×10^−6 cm·s^−1)”.
